# According to ChEMBL document CHEMBL1127360, “Antipodal alpha-N-(methyl through decyl)-N-normetazocines (5,9 alpha-dimethyl-2'-hydroxy-6,7-benzomorphans): in vitro and in vivo properties” (J Med Chem, 1994):
# pKi: −log10 of the molar value. The source made the active and inactive calls. No cut-off for these calls is given here.
# Columns and labels:
# [1] = target: Glutamate NMDA receptor; assay: Inhibition using [3H]TCP in homogenate of rat brain; assay type: tissue-based
# [2] = test system: Mus musculus; assay: In vivo antinociceptive activity was tested through tail flick (TF) with this compound in mouse at 30 mg/kg concentration; assay type: functional
# [3] = test system: Mus musculus; assay: In vivo for its narcotic antagonistic activity of the antinociceptive effect in mouse; assay type: functional, organism-based
# [4] = test system: Mus musculus; assay: In vivo antinociceptive activity at 10 mg/kg was tested through injecting 2 mg/kg ip phenylquinone, activity calculated by total number of abdominal-stretches per group counted over a 1 min period; assay type: functional
# [5] = test system: Mus musculus; assay: In vivo antinociceptive activity at 10 mg/kg was tested through hot plate (HP) by placing mouse on hot plate, and calculating number of times it jumps or licks its paw in 5 seconds; assay type: functional
# [6] = target: Mu-type opioid receptor (Rattus norvegicus, UniProt P33535); assay: Inhibition against mu receptor using [3H]DAMGO in homogenate of rat brain cerebellum; assay type: tissue-based
# Sequence of Mu-type opioid receptor (P33535 whole entry): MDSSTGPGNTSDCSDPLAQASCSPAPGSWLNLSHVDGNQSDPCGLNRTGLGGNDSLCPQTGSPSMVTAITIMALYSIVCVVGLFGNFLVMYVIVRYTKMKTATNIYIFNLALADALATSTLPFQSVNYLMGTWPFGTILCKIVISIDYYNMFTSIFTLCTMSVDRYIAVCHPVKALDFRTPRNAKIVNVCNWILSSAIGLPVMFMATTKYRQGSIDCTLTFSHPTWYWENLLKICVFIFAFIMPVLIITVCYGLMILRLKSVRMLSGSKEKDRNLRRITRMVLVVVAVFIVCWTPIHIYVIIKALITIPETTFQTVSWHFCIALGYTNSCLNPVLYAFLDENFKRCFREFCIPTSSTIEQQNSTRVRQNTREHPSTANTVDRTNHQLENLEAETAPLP
smiles,measurement,setting,value
C[C@@H]1C2Cc3ccc(O)cc3[C@]1(C)CCN2,pKi,[1],7.52
same,inhibition in vivo at 30 mg/kg,[2],27%
same,Activity,[3],inactive
same,Inhibition,[4],23%
same,inhibition in vivo at 10 mg/kg,[5],13%
same,pKi,[6],6.33
